Measurements taken from US7087620B2, “Liquid pharmaceutical formulations containing 3,7-diazabicyclo[3,3,1]nonane compounds and methods of treatment relating to anti-arrhythmic events” (Solvay Pharmaceuticals GmbH, priority 2002, dated 2006).

Key:
Type in all cases: in vivo, human
healthy male subjects = experiment: Two step infusion study in healthy male subjects: safety and tolerability; conditions: for Safety and tolerability: two step infusion of 0.4 mg tedisamil dihydrochloride per kg (0.32 mg/kg base)
Protocol: A double-blind, placebo-controlled, randomized, single iv dose, two periods cross-over study to assess the safety, tolerability, pharmacodynamics and pharmacokinetics during and following a two step infusion of Tedisamil in healthy male subjects was performed with the following drug and dosages: Tedisamil dihydrochloride/0.4 mg/kg body weight infused over 30 minutes.
Screening assessments included physical examination, ECG, HIV/Hepatitis screening, blood pressure and heart rate measurements, clinical laboratory determinations, urine drug screen, alcohol breath test, and medical history. Follow-up assessments included physical examination, ECG, blood pressure and heart rate measurements, clinical laboratory determinations, and questions for adverse events and concomitant medication. During concomitant administration of Tedisamil, blood pressure, heart rate, and ECGs were recorded. Adverse events and concomitant medication were monitored throughout the study.
Subjects who received study medication, were considered valid for safety evaluation.
Treatment emergent adverse events, defined as any adverse event present at baseline that worsened or any event that began after treatment with study medication, were summarized by COSTART term for each treatment group. Each adverse event was evaluated for frequency of occurrence, duration, intensity, action taken, outcome, and relationship to administration of the study medication. Adverse events were listed for each subject.
Listings of abnormal or out of range values for each subject were presented for vital signs, laboratory assays, and physical examinations. Adverse events, blood pressure, heart rate and clinical laboratory data were analyzed descriptively and reviewed to evaluate the safety of all randomized subjects. Any clinical abnormalities were described.

AF/AFL patients = experiment: Single infusion over 10 minutes in AF/AFL patients; conditions: intravenous doses of up to 0.24 mg/kg TEDI base, infused over 10 minutes
[1] = system: patients with atrial flutter; experiment: Placebo-controlled ascending dose study of intravenous tedisamil: conversion to normal sinus rhythm, patients with atrial flutter; conditions: for Conversion to NSR at any time within 2.5 hrs after the start of infusion (patients converted out of total) / Conversion to NSR at any time within 2.5 hrs after the start of infusion (percentage of patients) / Conversion to NSR at any time within 2.5 hrs and remaining in NSR until 2.5 hrs after the start of infusion (patients out of total) / Conversion to NSR at any time within 2.5 hrs and remaining in NSR until 2.5 hrs after the start of infusion (percentage of patients) / Conversion to NSR at any time within 2.5 hrs and remaining in NSR until 24 hrs after the start of infusion (patients out of total) / Conversion to NSR at any time within 2.5 hrs and remaining in NSR until 24 hrs after the start of infusion (percentage of patients) / Conversion to NSR at any time within 24 hrs after the start of infusion (patients out of total) / Conversion to NSR at any time within 24 hrs after the start of infusion (percentage of patients) / Conversion to NSR at any time within 24 hrs and remaining in NSR until 24 hrs after the start of infusion (patients out of total) / Conversion to NSR at any time within 24 hrs and remaining in NSR until 24 hrs after the start of infusion (percentage of patients): patients with atrial flutter; for Conversion to NSR at any time within 2.5 hrs after start of infusion (converted/total) / Conversion to NSR at any time within 2.5 hrs after start of infusion (%): Atrial Flutter, ITT patient sample, patients with DC cardioversion excluded
Protocol: A Multi-Center, Double-Blind, Randomized, Placebo-Controlled, Sequential Ascending Dose Groups Study to evaluate the Efficacy and Safety of Intravenous Tedisamil in the Rapid Conversion to Normal Sinus Rhythm in Patients with Atrial Fibrillation or Flutter was performed.
• Tedisamil (0.4 mg/kg body weight) • Tedisamil (0.6 mg/kg body weight) • Placebo • Dosages were given as a 30 minute intravenous infusion regimen. 1. Study Design
This multicenter trial was a double-blind, randomized, placebo-controlled, ascending dose groups study comparing the efficacy and safety of intravenous tedisamil treatment versus placebo in symptomatic patients with atrial fibrillation or flutter (>3 hours and <48 hours). The primary efficacy endpoint of this study was the termination of atrial fibrillation or flutter (for at least 60 seconds) within 2.5 hours after start of the infusion.
Following screening and baseline assessments, eligible patients were randomized to tedisamil or placebo with a sequential dose escalation approach. In the first stage, patients received 0.4 mg tedisamil/kg body weight or placebo over a 30 minutes infusion period, with half the dose infused during the first 10 minutes and half the dose infused over the remaining 20 minutes. After interim safety evaluation, in the second stage, patients received 0.6 mg tedisamil/kg body weight or placebo, with the same infusion regimen.
Patients were discharged from the telemetry unit 24 hours post infusion and safety follow up was to be obtained after 28 days. Blinded reviews of 12-lead ECGs (including 60 seconds rhythm strip) and 24 hour Holters to adjudicate the clinical endpoint (conversion to normal sinus rhythm) were performed centrally according to standard guidelines.
Tedisamil dihydrochloride, 0.4 mg/kg body weight, 0.6.mg/kg body weight was administered intravenously. The total infusion time was 30 minutes, with half the dose infused within 10 minutes, and half the dose infused within the remaining 20 minutes.
The percentage of patients converted to normal sinus rhythm (for at least 60 seconds) at any time within 2.5 hours after the initiation of the infusion of study drug.
6.1.2 Secondary Efficacy • The percentage of patients converted to normal sinus rhythm (for at least 60 seconds) at any time within 2.5 hrs and remaining in sinus rhythm until 2.5 hours after initiation of the intravenous infusion of tedisamil versus placebo. • The percentage of patients converted to normal sinus rhythm (for at least 60 seconds) at any time within 24 hours after initiation of the intravenous infusion of tedisamil versus placebo. • The percentage of patients converted to normal sinus rhythm (for at least 60 seconds) at any time within 24 hrs and remaining in sinus rhythm until 24 hours after initiation of the intravenous infusion of tedisamil versus placebo. • The percentage of patients converted to normal sinus rhythm (for at least 60 seconds) at any time within 2.5 hrs and remaining in sinus rhythm until 24 hours after initiation of the intravenous infusion of tedisamil versus placebo. • The time to conversion after the start of the infusion of tedisamil versus placebo. • The dose- and concentration-response relationships of tedisamil versus placebo.
The intent-to-treat patient sample was analyzed for efficacy. All tests were two-sided and a p-value <0.05 was considered significant. Differences in percentages of conversion were compared among the treatment groups using the Pearson chi-square statistic. Safety analysis was conducted on the safety patient sample. Numbers and percentages of patients with adverse events were calculated for each treatment group, using MedDRA preferred terms and body systems. Descriptive statistics were summarized by treatment group for changes from baseline in QT, heart rate and blood pressure. […]

[2] = 0.4 mg/kg iv two-step 30 minute infusion
[3] = 0.6 mg/kg iv two-step 30 minute infusion

For `C1CCC2(C1)C1CN(CC3CC3)CC2CN(CC2CC2)C1` [Tedisamil, N,N′-dicyclopropylmethyl-9,9-tetramethylene-3,7-diazabicyclo[3,3,1]nonane], the “Adverse events (AEs)” value (healthy male subjects; 0.4 mg/kg iv two step infusion, all judged probably related (injection site reaction, pain injection site, paresthesia)) was “six AEs were observed in five subjects”, the “Systolic and diastolic blood pressure change” value (healthy male subjects; first four hours after dosing, 0.4 mg/kg iv two step infusion) was “small increase in the arithmetic mean of systolic and diastolic blood pressure” and the Pulse rate change (healthy male subjects; first hour after dosing, 0.4 mg/kg iv two step infusion) was “decrease in pulse rate”. For the same compound, the Safety and tolerability (healthy male subjects) was “safe and well tolerated”, the Safety and tolerability (healthy male subjects; listed as TEDI) was “safe and well tolerated” and the “Conversions in AF/AFL patients” value (AF/AFL patients) was “did not produce any conversions”. The “Conversion to NSR at any time within 2.5 hrs after the start of infusion (patients converted out of total)” value [1, 2] was 1 out of 9, the “Conversion to NSR at any time within 2.5 hrs after the start of infusion (percentage of patients)” value [1, 2] was “(11%)” and the “Conversion to NSR at any time within 2.5 hrs and remaining in NSR until 2.5 hrs after the start of infusion (patients out of total)” value [1, 2] was 1 out of 9. The “Conversion to NSR at any time within 2.5 hrs and remaining in NSR until 2.5 hrs after the start of infusion (percentage of patients)” value [1, 2] was “(11%)”, the “Conversion to NSR at any time within 2.5 hrs and remaining in NSR until 24 hrs after the start of infusion (patients out of total)” value [1, 2] was 1 out of 7 and the “Conversion to NSR at any time within 2.5 hrs and remaining in NSR until 24 hrs after the start of infusion (percentage of patients)” value [1, 2] was “(14%)”. For the same compound, the “Conversion to NSR at any time within 24 hrs after the start of infusion (patients out of total)” value [1, 2] was 2 out of 7, the “Conversion to NSR at any time within 24 hrs after the start of infusion (percentage of patients)” value [1, 2] was “(29%)” and the “Conversion to NSR at any time within 24 hrs and remaining in NSR until 24 hrs after the start of infusion (patients out of total)” value [1, 2] was 2 out of 7. For the same compound, the “Conversion to NSR at any time within 24 hrs and remaining in NSR until 24 hrs after the start of infusion (percentage of patients)” value [1, 2] was “(29%)”, the “Conversion to NSR at any time within 2.5 hrs after the start of infusion (percentage of patients)” value ([1]; 0.4 mg/kg iv two-step 30 minute infusion, listed as tedisamil) was 11% and the “Conversion to NSR at any time within 2.5 hrs after the start of infusion (patients converted out of total)” value [1, 3] was 3 out of 11. The “Conversion to NSR at any time within 2.5 hrs after the start of infusion (percentage of patients)” value [1, 3] was “(27%)”, the “Conversion to NSR at any time within 2.5 hrs and remaining in NSR until 2.5 hrs after the start of infusion (patients out of total)” value [1, 3] was 3 out of 11 and the “Conversion to NSR at any time within 2.5 hrs and remaining in NSR until 2.5 hrs after the start of infusion (percentage of patients)” value [1, 3] was “(27%)”. For the same compound, the “Conversion to NSR at any time within 2.5 hrs and remaining in NSR until 24 hrs after the start of infusion (patients out of total)” value [1, 3] was 3 out of 7, the “Conversion to NSR at any time within 2.5 hrs and remaining in NSR until 24 hrs after the start of infusion (percentage of patients)” value [1, 3] was “(43%)” and the “Conversion to NSR at any time within 24 hrs after the start of infusion (patients out of total)” value [1, 3] was 3 out of 7. The “Conversion to NSR at any time within 24 hrs after the start of infusion (percentage of patients)” value [1, 3] was “(43%)”, the “Conversion to NSR at any time within 24 hrs and remaining in NSR until 24 hrs after the start of infusion (patients out of total)” value [1, 3] was 3 out of 7 and the “Conversion to NSR at any time within 24 hrs and remaining in NSR until 24 hrs after the start of infusion (percentage of patients)” value [1, 3] was “(43%)”. The “Conversion to NSR at any time within 2.5 hrs after the start of infusion (percentage of patients)” value ([1]; 0.6 mg/kg iv two-step 30 minute infusion, listed as tedisamil) was 27%, the “Conversion to NSR at any time within 2.5 hrs after start of infusion (converted/total)” value (shortened to “Conversion to NSR … (converted/total)”) ([1]; Female, 0.4 mg/kg) was 0/2 and the “Conversion to NSR at any time within 2.5 hrs after start of infusion (%)” value (shortened to “Conversion to NSR … (%)”) ([1]; Female, 0.6 mg/kg) was 33.3%. The “Conversion to NSR … (converted/total)” value ([1]; Female, 0.6 mg/kg) was 2/6, the “Conversion to NSR … (%)” value ([1]; Male, 0.4 mg/kg) was 14.3% and the “Conversion to NSR … (converted/total)” value ([1]; Male, 0.4 mg/kg) was 1/7. The “Conversion to NSR … (%)” value ([1]; Male, 0.6 mg/kg) was 20.0% and the “Conversion to NSR … (converted/total)” value ([1]; Male, 0.6 mg/kg) was 1/5.
